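Five concentrations, 48 hours, 96-well plates. Here, GI50 denotes the concentration required for 50% inhibition of growth. TGI: concentration producing complete growth inhibition.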
Experiments:
Experiment in all cases: NCI tumour cell line growth inhibition, 48 h
786-0 renal = system: 786-0 renal
A498 renal = system: A498 renal
A549 NSCLC = system: A549 NSCLC
ACHN renal = system: ACHN renal
BT-549 breast = system: BT-549 breast
CAKI-1 renal = system: CAKI-1 renal
CCRF-CEM leukemia = system: CCRF-CEM leukemia
COLO 205 colon = system: COLO 205 colon
DU-145 prostate = system: DU-145 prostate
EKVX NSCLC = system: EKVX NSCLC
HCC-2998 colon = system: HCC-2998 colon
HCT-116 colon = system: HCT-116 colon
HCT-15 colon = system: HCT-15 colon
HL-60(TB) leukemia = system: HL-60(TB) leukemia
HOP-62 NSCLC = system: HOP-62 NSCLC
HOP-92 NSCLC = system: HOP-92 NSCLC
HS 578T breast = system: HS 578T breast
HT29 colon = system: HT29 colon
IGROV1 ovarian = system: IGROV1 ovarian
K-562 leukemia = system: K-562 leukemia
KM12 colon = system: KM12 colon
LOX IMVI melanoma = system: LOX IMVI melanoma
M14 melanoma = system: M14 melanoma
MALME-3M melanoma = system: MALME-3M melanoma
MCF7 breast = system: MCF7 breast
MDA-MB-231 breast = system: MDA-MB-231 breast
MDA-MB-435 = system: MDA-MB-435
MOLT-4 leukemia = system: MOLT-4 leukemia
NCI-H226 lung = system: NCI-H226 lung
NCI-H23 lung = system: NCI-H23 lung
NCI-H460 lung = system: NCI-H460 lung
NCI-H522 lung = system: NCI-H522 lung
NCI/ADR-RES ovarian = system: NCI/ADR-RES ovarian
OVCAR-3 ovarian = system: OVCAR-3 ovarian
OVCAR-4 ovarian = system: OVCAR-4 ovarian
OVCAR-5 ovarian = system: OVCAR-5 ovarian
OVCAR-8 ovarian = system: OVCAR-8 ovarian
PC-3 prostate = system: PC-3 prostate
RPMI-8226 leukemia = system: RPMI-8226 leukemia
RXF 393 renal = system: RXF 393 renal
SF-268 CNS = system: SF-268 CNS
SF-295 CNS = system: SF-295 CNS
SF-539 CNS = system: SF-539 CNS
SK-MEL-2 melanoma = system: SK-MEL-2 melanoma
SK-MEL-28 melanoma = system: SK-MEL-28 melanoma
SK-MEL-5 melanoma = system: SK-MEL-5 melanoma
SK-OV-3 ovarian = system: SK-OV-3 ovarian
SN12C renal = system: SN12C renal
SNB-19 CNS = system: SNB-19 CNS
SNB-75 CNS = system: SNB-75 CNS
SR leukemia = system: SR leukemia
SW-620 colon = system: SW-620 colon
T-47D breast = system: T-47D breast
TK-10 renal = system: TK-10 renal
U251 CNS = system: U251 CNS
UACC-257 melanoma = system: UACC-257 melanoma
UACC-62 melanoma = system: UACC-62 melanoma
UO-31 renal = system: UO-31 renal

## COC(=O)C1=C(OC(=O)/C(=C/c2ccc(Cl)cc2)c2ccccc2)C(C(=O)OC)[C@@]2(O)[C@@H](C(=O)OC)[C@H](C)C[C@@H]1[C@@H]2C(=O)OC (some centres undefined)
786-0 renal
  TGI: > 100 µM
A498 renal
  TGI: > 100 µM
A549 NSCLC
  TGI: > 100 µM
ACHN renal
  TGI: > 100 µM
BT-549 breast
  TGI: > 100 µM
CAKI-1 renal
  TGI: > 100 µM
CCRF-CEM leukemia
  TGI: > 100 µM
COLO 205 colon
  TGI: > 100 µM
DU-145 prostate
  TGI: > 100 µM
EKVX NSCLC
  TGI: > 100 µM
HCC-2998 colon
  TGI: > 100 µM
HCT-116 colon
  TGI: > 100 µM
HCT-15 colon
  TGI: > 100 µM
HL-60(TB) leukemia
  TGI: > 100 µM
HOP-62 NSCLC
  TGI: > 100 µM
HOP-92 NSCLC
  TGI: > 100 µM
HS 578T breast
  TGI: > 100 µM
HT29 colon
  TGI: > 100 µM
IGROV1 ovarian
  TGI: > 100 µM
K-562 leukemia
  TGI: > 100 µM
KM12 colon
  TGI: > 100 µM
LOX IMVI melanoma
  TGI: > 100 µM
M14 melanoma
  TGI: > 100 µM
MALME-3M melanoma
  TGI: > 100 µM
MCF7 breast
  TGI: > 100 µM
MDA-MB-231 breast
  TGI: > 100 µM
MDA-MB-435
  TGI: > 100 µM
MOLT-4 leukemia
  TGI: > 100 µM
NCI-H226 lung
  TGI: > 100 µM
NCI-H23 lung
  TGI: > 100 µM
NCI-H460 lung
  TGI: > 100 µM
NCI-H522 lung
  TGI: > 100 µM
NCI/ADR-RES ovarian
  TGI: > 100 µM
OVCAR-3 ovarian
  TGI: > 100 µM
OVCAR-4 ovarian
  TGI: > 100 µM
OVCAR-5 ovarian
  TGI: > 100 µM
OVCAR-8 ovarian
  TGI: > 100 µM
PC-3 prostate
  TGI: > 100 µM
RPMI-8226 leukemia
  TGI: > 100 µM
RXF 393 renal
  TGI: > 100 µM
SF-268 CNS
  TGI: > 100 µM
SF-295 CNS
  TGI: > 100 µM
SF-539 CNS
  TGI: > 100 µM
SK-MEL-2 melanoma
  TGI: > 100 µM
SK-MEL-28 melanoma
  TGI: > 100 µM
SK-MEL-5 melanoma
  TGI: > 100 µM
SK-OV-3 ovarian
  TGI: > 100 µM
SN12C renal
  TGI: > 100 µM
SNB-19 CNS
  TGI: > 100 µM
SNB-75 CNS
  TGI: > 100 µM
SR leukemia
  TGI: > 100 µM
SW-620 colon
  TGI: > 100 µM
T-47D breast
  TGI: > 100 µM
TK-10 renal
  TGI: > 100 µM
U251 CNS
  TGI: > 100 µM
UACC-257 melanoma
  TGI: > 100 µM
UACC-62 melanoma
  TGI: > 100 µM
UO-31 renal
  TGI: > 100 µM

## CC(C)(C)c1ccc(C(=O)N/N=C/c2ccc(O)cc2O)cc1
786-0 renal
  GI50: 0.53 µM
  TGI: 3.3 µM
A498 renal
  GI50: 1.27 µM
  TGI: 6.09 µM
A549 NSCLC
  GI50: 0.594 µM
  TGI: 35 µM
ACHN renal
  GI50: 0.334 µM
  TGI: 7.74 µM
BT-549 breast
  GI50: 0.933 µM
  TGI: 9.53 µM
CAKI-1 renal
  GI50: 0.342 µM
  TGI: 1.99 µM
CCRF-CEM leukemia
  GI50: 0.26 µM
  TGI: > 36.9 µM
COLO 205 colon
  GI50: 0.377 µM
  TGI: 6.76 µM
DU-145 prostate
  GI50: 0.564 µM
  TGI: 14 µM
EKVX NSCLC
  GI50: 0.356 µM
  TGI: 11.8 µM
HCC-2998 colon
  GI50: 0.695 µM
  TGI: 7.62 µM
HCT-116 colon
  GI50: 0.281 µM
  TGI: 11.5 µM
HCT-15 colon
  GI50: 0.325 µM
  TGI: 2.12 µM
HL-60(TB) leukemia
  GI50: 0.411 µM
  TGI: 8.27 µM
HOP-62 NSCLC
  GI50: 0.418 µM
  TGI: 11.1 µM
HOP-92 NSCLC
  GI50: 1.65 µM
  TGI: 13.7 µM
HS 578T breast
  GI50: 2.42 µM
  TGI: 27.3 µM
HT29 colon
  GI50: 0.885 µM
  TGI: 8.33 µM
IGROV1 ovarian
  GI50: 0.411 µM
  TGI: 12.4 µM
K-562 leukemia
  GI50: 0.476 µM
  TGI: 20.1 µM
KM12 colon
  GI50: 0.418 µM
  TGI: 2.48 µM
LOX IMVI melanoma
  GI50: 0.224 µM
  TGI: 0.975 µM
M14 melanoma
  GI50: 0.409 µM
  TGI: 9.83 µM
MALME-3M melanoma
  GI50: 0.478 µM
  TGI: 5.19 µM
MCF7 breast
  GI50: 0.322 µM
  TGI: 12.7 µM
MDA-MB-231 breast
  GI50: 0.5 µM
  TGI: 5.83 µM
MDA-MB-435
  GI50: 0.806 µM
  TGI: 21.6 µM
MOLT-4 leukemia
  GI50: 0.346 µM
  TGI: 14.9 µM
NCI-H226 lung
  GI50: 0.412 µM
  TGI: 5.75 µM
NCI-H23 lung
  GI50: 0.839 µM
  TGI: 13.3 µM
NCI-H460 lung
  GI50: 0.32 µM
  TGI: 1.88 µM
NCI-H522 lung
  GI50: 1.2 µM
  TGI: 14 µM
NCI/ADR-RES ovarian
  GI50: 0.351 µM
  TGI: 19.3 µM
OVCAR-3 ovarian
  GI50: 0.28 µM
  TGI: 2.06 µM
OVCAR-4 ovarian
  GI50: 0.238 µM
  TGI: 14.9 µM
OVCAR-5 ovarian
  GI50: 0.661 µM
  TGI: 14.7 µM
OVCAR-8 ovarian
  GI50: 0.54 µM
  TGI: > 100 µM
PC-3 prostate
  GI50: 0.706 µM
  TGI: 21.8 µM
RPMI-8226 leukemia
  GI50: 0.784 µM
  TGI: 20.9 µM
RXF 393 renal
  GI50: 1.61 µM
  TGI: 12.2 µM
SF-268 CNS
  GI50: 0.358 µM
  TGI: 8.19 µM
SF-295 CNS
  GI50: 0.327 µM
  TGI: 3.22 µM
SF-539 CNS
  GI50: 0.452 µM
  TGI: 2.98 µM
SK-MEL-2 melanoma
  GI50: 1.89 µM
  TGI: 16 µM
SK-MEL-28 melanoma
  GI50: 0.595 µM
  TGI: 13.9 µM
SK-MEL-5 melanoma
  GI50: 0.913 µM
  TGI: 3.4 µM
SK-OV-3 ovarian
  GI50: 0.589 µM
  TGI: 14.7 µM
SN12C renal
  GI50: 0.801 µM
  TGI: 13 µM
SNB-19 CNS
  GI50: 0.825 µM
  TGI: 17.9 µM
SNB-75 CNS
  GI50: 0.584 µM
  TGI: 13.6 µM
SR leukemia
  GI50: 0.317 µM
  TGI: > 100 µM
SW-620 colon
  GI50: 0.62 µM
  TGI: 13.1 µM
T-47D breast
  GI50: 0.786 µM
  TGI: 32.6 µM
TK-10 renal
  GI50: 0.73 µM
  TGI: > 53.5 µM
U251 CNS
  GI50: 0.483 µM
  TGI: 14.9 µM
UACC-257 melanoma
  GI50: 0.557 µM
  TGI: 21.4 µM
UACC-62 melanoma
  GI50: 0.363 µM
  TGI: 3.2 µM
UO-31 renal
  GI50: 0.24 µM
  TGI: 2.28 µM

Source: PubChem BioAssay (NCI)
